According to US11185549B2, “Combination of a PI3K-inhibitor with an androgen receptor antagonist” (priority 2017, dated 2021):
“And” between values parts separate entries of the source, which are not always exact repeats. Equal entries are not always repeated. Structures can show the parent of a compound that is named as a salt. Where two headings read alike, the source gives them in different places.

How the values were obtained:
[1] = system: LAPC-4 human prostate cancer cells; test: LAPC-4 proliferation assay (CellTiter-Glo), single agents and combination index; assay type: cell-based
Protocol: (§1) Cell lines derived from human prostate cancer metastasis were used (Table 1).
(§2) After one day, the cells were treated with R1881 (10 nM) and 1 nM to 10 μM compounds (day 0). Cell number was determined following addition of CellTiter-Glo® (Promega) at day 0 and day 6. Luminescence was determined in a Victor X3 device (PerkinElmer). The inhibition of cell growth was calculated by normalization with respect to the luminescence reading (cell number) measured at the end of the experiment for cells treated with R1881 alone compared to the fluorescence reading (cell number) measured at the end of the experiment for DMSO-treated cells. […] After one day, the cells were treated with R1881 (0.1 nM) and 1 nM to 10 μM compounds (day 0). Cell number was determined following addition of CellTiter-Glo® (Promega) at day 0 and day 6. Luminescence was determined in a Victor X3 device […]. The inhibition of cell growth was calculated by normalization with respect to the luminescence reading (cell number) measured at the end of the experiment for cells treated with R1881 alone compared to the fluorescence reading (cell number) measured at the start of the experiment for DMSO-treated cells.
(§3) The Combination Index (CI) was determined for the two compound ratios closest to the ratio of the respective IC50 values of each compound alone.

[2] = system: VCaP human prostate cancer cells; test: VCaP proliferation assay (CellTiter-Glo), single agents and combination index; assay type: cell-based
Protocol: as §1, §2, §3

PI3K isoforms = details: cited from earlier work
mTOR = mTOR (Homo sapiens, UniProt P42345); details: cited from earlier work
androgen receptor [3] = details: cited from earlier work
androgen receptor [4] = molecular target: androgen receptor (Homo sapiens, UniProt P10275); details: cited from earlier work
[5] = Homo sapiens, LAPC4, 144 h, LAPC-4 cells, single agent, R1881 10 nM, day 6, read-out: Compound A IC50
[6] = Homo sapiens, VCaP, 144 h, VCaP cells, single agent, R1881 0.1 nM, day 6, read-out: Compound A IC50

Chain of androgen receptor (Homo sapiens, UniProt P10275) (P10275 whole entry, species assumed): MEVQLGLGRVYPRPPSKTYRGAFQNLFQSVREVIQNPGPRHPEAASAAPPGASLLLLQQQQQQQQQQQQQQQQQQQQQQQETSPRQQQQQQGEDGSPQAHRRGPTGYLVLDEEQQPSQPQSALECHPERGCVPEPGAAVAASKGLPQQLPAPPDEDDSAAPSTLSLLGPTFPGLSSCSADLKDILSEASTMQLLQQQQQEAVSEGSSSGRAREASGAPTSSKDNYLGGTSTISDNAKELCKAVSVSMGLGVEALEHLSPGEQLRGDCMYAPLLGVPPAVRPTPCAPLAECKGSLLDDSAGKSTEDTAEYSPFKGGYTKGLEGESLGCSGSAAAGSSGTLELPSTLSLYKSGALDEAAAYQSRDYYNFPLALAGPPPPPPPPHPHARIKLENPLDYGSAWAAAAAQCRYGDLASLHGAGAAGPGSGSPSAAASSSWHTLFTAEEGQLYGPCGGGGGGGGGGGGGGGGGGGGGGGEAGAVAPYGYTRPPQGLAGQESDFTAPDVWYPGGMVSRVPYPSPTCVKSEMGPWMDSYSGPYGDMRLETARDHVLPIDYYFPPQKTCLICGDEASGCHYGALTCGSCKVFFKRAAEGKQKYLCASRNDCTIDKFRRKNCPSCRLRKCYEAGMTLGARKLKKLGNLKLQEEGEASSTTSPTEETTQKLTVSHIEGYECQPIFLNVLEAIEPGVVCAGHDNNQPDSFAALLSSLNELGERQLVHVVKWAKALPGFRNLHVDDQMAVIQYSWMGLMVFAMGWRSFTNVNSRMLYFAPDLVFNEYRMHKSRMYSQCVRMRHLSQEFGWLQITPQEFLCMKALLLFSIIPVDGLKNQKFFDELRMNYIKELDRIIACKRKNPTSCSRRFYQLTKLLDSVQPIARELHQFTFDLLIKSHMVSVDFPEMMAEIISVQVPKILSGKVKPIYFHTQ

Row | IC50 [1, 5] [nM] | IC50 ([1]; LAPC-4 cells, single agent, R1881 10 nM, day 6, read-out: Compound A IC50) [nM] | IC50 [2, 6] [nM] | IC50 ([1]; LAPC-4 cells, single agent, R1881 10 nM, day 6, dihydrochloride, read-out: Compound A IC50) [nM] | Structure (SMILES) | activity against PI3K isoforms (PI3K isoforms) | activity against mTOR (mTOR) | IC50 ([1]; Homo sapiens, LAPC4, 144 h, read-out: Compound B IC50, LAPC-4 cells, single agent, R1881 10 nM, day 6) [nM] | IC50 ([1]; read-out: Compound B IC50, LAPC-4 cells, single agent, R1881 10 nM, day 6) [nM] | IC50 ([2]; Homo sapiens, VCaP, 144 h, read-out: Compound B IC50, VCaP cells, single agent, R1881 0.1 nM, day 6) [nM] | IC50 ([2]; read-out: Compound B IC50, VCaP cells, single agent, R1881 0.1 nM, day 6) | binding affinity for the androgen receptor (androgen receptor [3]) | inhibition of transactivation function (androgen receptor [4])
1 | 12 | 13 | 52 |  | Cc1c(CN2CCN(C(=O)[C@H](C)O)CC2)sc2c(N3CCOCC3)nc(-c3cnc(N)nc3)nc12 [Apitolisib] | low nanomolar | low nanomolar |  |  |  |  |  | 
2 | 41 |  | 9 | 49 | COc1c(OCCCN2CCOCC2)ccc2c1N=C(NC(=O)c1cnc(N)nc1)N1CCN=C21 [Copanlisib, 2-amino-N-[7-methoxy-8-(3-morpholin-4-ylpropoxy)-2,3-dihydroimidazo[1,2-c]quinazolin-5-yl]pyrimidine-5-carboxamide dihydrochloride] |  |  |  |  |  |  |  | 
3 |  |  | 26 |  | Cn1c(=O)n(-c2ccc(C(C)(C)C#N)cc2)c2c3cc(-c4cnc5ccccc5c4)ccc3ncc21 [Dactolisib] | low nanomolar | low nanomolar |  |  |  |  |  | 
4 |  |  |  |  | CC(O)c1cc(C(=O)N[C@@H](C)Cn2ccc(-c3ccc(C#N)c(Cl)c3)n2)[nH]n1 (some centres unmarked) [Darolutamide] |  |  | 263 | 366 | 350 | 417 nM and 557 nM | low nanomolar | high inhibition
